{"source": "patent US10722582B2", "about": "“Targeted antimicrobial photodynamic therapy” (Purdue Research Foundation, priority 2018, dated 2020)", "key": {"MRSA383": {"system": "MRSA383", "experiment": "Antibacterial activity assay with LED light", "assay_type": "cell-based, Staphylococcus aureus", "procedure": "(§1) Antibacterial activity assay general protocol: Used LED light to test conditions. Bacteria were grown in TS broth, followed by 3 mM bipyridine in TS broth until log phase. Bacteria were then diluted with PBS, to OD 0.1 (˜10^) and then to ˜10^7 cfu/mL. 100 uL of bacteria were placed in 96 well plates with the appropriate GaPpIX concentration. 2× serial dilutions were then done to obtain other GaPpIX concentrations. Each concentration was done in triplicate. Bacteria were left incubating and irradiating for different amount of times at different light powers or left in the dark. 10× Serial dilutions were done and bacteria were plated for colony counting using the drop-plate technique. Colonies were counted after 24 hours. As reported herein, a 3-log reduction equals measurable antimicrobial action; a 6-log reduction equals total eradication.\n(§2) Stock solution preparation (AVM-3-36, 10 nm AgNP). Prepared a solution of (AVM-2-273) GaPpIX-apoHb 1 mg/mL in MP H2O, deaerated. Took 10 mL of 10 nm AgNPs, centrifuged at 900 G for 5 min (Beckman, 3100 RPM), took supernantant and added 200 uL of GaPpIXHb. After overnight, centrifuged 3000 RPM g for 5 minutes (Beckman). Took supernantant and centrifuged using a 100 K CentriCon tube at 4000 RPM for 5 minutes, 3×. Added 15 mM borate buffer to NPs. Based on calibration curve, the stock solution is 1.94 ug/mL AgNP, so stock: 79 μg/mL AgNP, 10.37 μg/mL GaPpIXHb, 0.446 μg/mL GaPpIX (refer to AVM-2-293A and AVM-3-3).\n(§3) The following antibacterial activity measurements were assayed in the presence of AgNP."}, "MRSA385": {"system": "MRSA385", "experiment": "Antibacterial activity assay with LED light", "assay_type": "cell-based, Staphylococcus aureus", "procedure": "as §1, §2, §3"}, "MRSA386": {"system": "MRSA386", "experiment": "Antibacterial activity assay with LED light", "assay_type": "cell-based, Staphylococcus aureus", "procedure": "as §1, §2, §3"}, "MRSA387": {"system": "MRSA387", "experiment": "Antibacterial activity assay with LED light", "assay_type": "cell-based, Staphylococcus aureus", "procedure": "as §1, §2, §3"}, "[1]": {"experiment": "Photophysical measurements (absorption, fluorescence quantum yield)", "assay_type": "physicochemical", "source_text": "Hemin chloride and all reagents were obtained from commercial sources, and used as received unless otherwise noted. Dimethyl sulfoxide (DMSO) was distilled over CaH2 under reduced pressure. Deionized water was obtained from an ultrafiltration system (Milli-Q, Millipore) with a resistivity >18 MΩ·cm, and passed through a 0.22-μm filter to remove particulate matter. Absorption spectra were collected on a Varian Cary50 spectrometer; fluorescence emission data were collected on a Cary Eclipse fluorimeter with a gate time of 5 ms. ^1H NMR spectra were obtained in CDCl3 or DMSO-d6 using a Varian 800-MHz spectrometer; all chemical shifts (δ) reported in ppm.\nThe quantum yield of Ga-PpIX in deaerated DMSO was determined to be 6.3%, using Ru(II)(bipy)3Cl2 in aerated acetonitrile as a standard."}, "HEK cells": {"system": "HEK cells", "experiment": "Cytotoxicity against HEK cells", "settings": "read-out: IC50 (cytotoxicity)"}}, "data": [{"substance": "Ga(III)-protoporphyrin [Ga-PpIX (1)]", "values": [{"measurement": "concentration for 3-log reduction", "setting": "MRSA383", "value": 59, "unit": "nM"}, {"measurement": "concentration for 6-log reduction", "setting": "MRSA383", "value": 118, "unit": "nM"}, {"measurement": "concentration for 3-log reduction", "setting": "MRSA385", "value": 89, "unit": "nM"}, {"measurement": "concentration for 6-log reduction", "setting": "MRSA385", "value": 470, "unit": "nM"}, {"measurement": "concentration for 3-log reduction", "setting": "MRSA386", "value": 118, "unit": "nM"}, {"measurement": "concentration for 6-log reduction", "setting": "MRSA386", "value": 235, "unit": "nM"}, {"measurement": "concentration for 3-log reduction", "setting": "MRSA387", "value": 59, "unit": "nM"}, {"measurement": "concentration for 6-log reduction", "setting": "MRSA387", "value": 1900, "unit": "nM"}, {"measurement": "molar extinction coefficient ε", "setting": "[1]; DMSO, λmax=410 nm, 0.4-10 μM", "value": 154000, "unit": "M⁻¹ cm⁻¹"}, {"measurement": "fluorescence quantum yield", "setting": "[1]; deaerated DMSO, Ru(II)(bipy)3Cl2 in aerated acetonitrile as standard", "value": 6.3, "unit": "%"}, {"measurement": "IC50", "setting": "HEK cells", "value": "> 10", "unit": "µM"}]}]}
